Experimental data reported in patent US20090076050A1, “SYNERGISTIC TUMOR-KILLING EFFECT OF RADIATION AND BERBERINE COMBINED TREATMENT IN LUNG CANCER” (CHUNG SHAN MEDICAL U., priority 2007, published 2009).

Columns and labels:
beclin-1 = assay: immunohistochemistry of beclin-1 in xenograft; format: in vivo, C57BL/6 mice; conditions: co-treatment groups (berberine + IR)
Method: (§1) The application of the additive cytotoxicity of IR combined with berberine in cancer treatment was further evidenced in an in vivo Lewis lung carcinoma (LLC) model in mice (Camphausen K, et al. Cancer Res 2001; 61:2207-11). Male C57BL/6 mice aged 4-6 weeks (National Taiwan University Animal Center, Taiwan) were used. To form a tumor xenograft, Lewis lung cells (2×10^6) were injected s.c. into the right hind limb. Animals were randomized into six groups: control, irradiation (IR) alone, berberine (1.0, 2.0 mg/kg) alone, and IR combined with berberine (1.0, 2.0 mg/kg). For tumor irradiation, mice were immobilized in a customized harness that exposed the right hind leg while shielding the remainder of the body by 3.5 cm of lead. Mice were exposed to a single dose of 8 Gy. […] To obtain tumor growth curves, three orthogonal tumor diameters were measured every 4-day intervals with a vernier caliper, and the mean values were calculated. […] Primary tumor growth delay was measured by calipers in two dimensions, and the volumes were calculated according to the formula: tumor volume=(width) 2×length×0.52. […] The tumor volume at the primary site of each group was measured before treatment, and the average tumor volume was designated as T0. When the animals were sacrificed at the end of experiment, the xenografts were removed, and the tumor volume was determined and presented as fold of T0. […]

[1] = test system: Lewis lung carcinoma (LLC); assay: Lewis lung carcinoma (LLC) tumor xenograft growth in mice; format: in vivo, C57BL/6 mice; conditions: for tumor volume relative to that before the treatment: LLC in C57BL/6 mice, p<0.001
Method: The application of the additive cytotoxicity of IR combined with berberine in cancer treatment was further evidenced in an in vivo Lewis lung carcinoma (LLC) model in mice (Camphausen K, et al. Cancer Res 2001; 61:2207-11). Male C57BL/6 mice aged 4-6 weeks (National Taiwan University Animal Center, Taiwan) were used. To form a tumor xenograft, Lewis lung cells (2×10^6) were injected s.c. into the right hind limb. Animals were randomized into six groups: control, irradiation (IR) alone, berberine (1.0, 2.0 mg/kg) alone, and IR combined with berberine (1.0, 2.0 mg/kg). For tumor irradiation, mice were immobilized in a customized harness that exposed the right hind leg while shielding the remainder of the body by 3.5 cm of lead. Mice were exposed to a single dose of 8 Gy. Berberine was supplemented (1.0, 2.0 mg/kg, i.p.) to animals 1 day before the radiation exposure, and then twice a week for 4 weeks. To obtain tumor growth curves, three orthogonal tumor diameters were measured every 4-day intervals with a vernier caliper, and the mean values were calculated. The animals were killed (n=5 per group) at the indicated time points, and the primary tumor was dissected and examined. Primary tumor growth delay was measured by calipers in two dimensions, and the volumes were calculated according to the formula: tumor volume=(width) 2×length×0.52. LLC cells were injected s.c. into the right thighs of C57BL/6 mice 10 days before the IR therapy. The animals were randomized into six treatment groups: untreated, 8 Gy radiation in one dose, berberine alone (1.0, 2.0 mg/kg i.p., twice weekly), and berberine combined with IR treatment (FIG. 6A). Berberine was supplemented to the indicated groups one day before the IR treatment and continued for 4 weeks. The tumor volume at the primary site of each group was measured before treatment, and the average tumor volume was designated as T0. When the animals were sacrificed at the end of experiment, the xenografts were removed, and the tumor volume was determined and presented as fold of T0. The blood samples were collected for biochemical analysis. […] Berberine at 1.0 and 2.0 mg/kg, as used with IR, has shrunk the tumor volume down to approximately 48% and 22% of that before the treatment (FIG. 6C, p<0.001). Furthermore, immunohistochemistry was performed to detect the level of beclin-1 and bcl-2 proteins in the xenograft. Primary tumors were fixed and then embedded in paraffin. The sections were stained with anti-bcl-2 mouse-monoclonal antibody (1:100, Santa Cruz Biotechnology, Santa Cruz, Calif.) or anti-beclin-1 rabbit polyclonal antiserum (1:50, Santa Cruz Biotechnology, Santa Cruz, Calif.). The sections were then incubated with blocking buffer for 40 min at RT followed by incubation with the primary antibody over night at 4° C. […]

bcl-2 = assay: immunohistochemistry of bcl-2 in xenograft; format: in vivo, C57BL/6 mice
Method: as §1

[2] = blood biochemical analysis in LLC model mice; format: in vivo, C57BL/6 mice; conditions: all six groups incl. berberine 1.0, 2.0 mg/kg i.p. alone or with IR, end of experiment
Method: as §1

LC3-II in A549 cells = assay: immunoblotting for LC3-I, LC3-II; format: cell-based, human; conditions: 24 h after IR combined with increasing concentrations of berberine
Method: The role of apoptosis in the sensitivity of A549 cells to IR induced by berberine was further clarified by DAPI stain. DNA extraction and electrophoresis on agarose gel were carried out as described previously (Solary E, et al. Therapie 2001; 56:511-18). After the indicated treatments, cells were fixed with 3 mL of 4% paraformaldehyde. To stain the cells, 500 μL of a 0.5 μg/mL chilled solution of DAPI (Invitrogen) stain was added and allowed to sit for 5 min. The cells were then rinsed with PBS solution and counted under a fluorescent microscope. For positive control of DNA fragmentation and DAPI stain, A549 cells were treated with 30 μM etoposide for 24 h. […] This contention was further confirmed by the lack of apoptotic DNA fragmentation and activation of caspase-3 and poly-(ADP-ribose) polymerases (PARP) as analyzed by DNA electrophoresis and immunoblotting (FIG. 3B, 3C). After the indicated treatment, the resultant supernatants were separated in 12%˜18% polyacrylamide gels. The blot was incubated with a polyclonal antibody against LC3 (gift from T. Yoshimori), PARP, caspase-3, bcl-2, beclin-1 and β-actin (Santa Cruz biotechnology, USA) for 2 h, and then with an appropriate peroxidase-conjugated secondary antibody (Sigma) for 1 h at 37° C. […] LC3 is localized in autophagosome membranes during amino acid starvation-induced autophagy (Mizushima N, et al. J Cell Biol 2001; 152:657-68.). […]

A549 cells = assay: apoptosis hallmarks: DAPI stain, DNA electrophoresis, immunoblotting of caspase-3 and PARP; format: cell-based, human; conditions: 24 h
Method: The role of apoptosis in the sensitivity of A549 cells to IR induced by berberine was further clarified by DAPI stain. DNA extraction and electrophoresis on agarose gel were carried out as described previously (Solary E, et al. Therapie 2001; 56:511-18). After the indicated treatments, cells were fixed with 3 mL of 4% paraformaldehyde. To stain the cells, 500 μL of a 0.5 μg/mL chilled solution of DAPI (Invitrogen) stain was added and allowed to sit for 5 min. The cells were then rinsed with PBS solution and counted under a fluorescent microscope. For positive control of DNA fragmentation and DAPI stain, A549 cells were treated with 30 μM etoposide for 24 h. […] This contention was further confirmed by the lack of apoptotic DNA fragmentation and activation of caspase-3 and poly-(ADP-ribose) polymerases (PARP) as analyzed by DNA electrophoresis and immunoblotting (FIG. 3B, 3C). After the indicated treatment, the resultant supernatants were separated in 12%˜18% polyacrylamide gels. The blot was incubated with a polyclonal antibody against LC3 (gift from T. Yoshimori), PARP, caspase-3, bcl-2, beclin-1 and β-actin (Santa Cruz biotechnology, USA) for 2 h, and then with an appropriate peroxidase-conjugated secondary antibody (Sigma) for 1 h at 37° C.

COc1ccc2cc3[n+](cc2c1OC)CCc1cc2c(cc1-3)OCO2 [berberine, Berberine]
beclin-1 protein expression in xenograft (beclin-1): remarkable increased | tumor volume relative to that before the treatment ([1]; berberine 1.0 mg/kg i.p. twice weekly for 4 weeks with IR 8 Gy): approximately 48% | tumor volume relative to that before the treatment ([1]; berberine 2.0 mg/kg i.p. twice weekly for 4 weeks with IR 8 Gy): ~22% | tumor size in tumor growth curves ([1]; berberine (1.0, 2.0 mg/kg) combined with IR 8 Gy, LLC in mice (FIG. 6B)): considerable reduced size | growth of the xenograft ([1]; berberine alone (1.0, 2.0 mg/kg i.p., twice weekly), LLC in mice): slowed down | bcl-2 protein expression in xenograft (bcl-2; berberine alone groups): reduced | bcl-2 protein expression in xenograft (bcl-2; co-treatment groups (berberine + IR)): reduced | serum levels of AST, ALT, urea nitrogen, creatinine, complete blood cell counts, triglyceride and total cholesterol [2]: no difference among groups | expression of LC3-II (LC3-II in A549 cells): increased dose-dependently | apoptotic DNA fragmentation and activation of caspase-3 and PARP (A549 cells; berberine with IR, DNA electrophoresis and immunoblotting (FIG. 3B, 3C)): lack | number of apoptotic cells (DAPI stain) (A549 cells; co-treatment of berberine (>5.0 μM) with IR (6 Gy)): increased only slightly
